The target in data set [1] is Tyrosine-protein kinase Lck (Homo sapiens, UniProt P06239).
Description: Inhibition of LCK (unknown origin) using TK as substrate incubated for 30 mins by HTRF assay
Data set [2] has as its target Tyrosine-protein kinase Lyn (Homo sapiens, UniProt P07948).
Description: Inhibition of LYN (unknown origin)
Data set [3] relates to NCI-H358. Description: cells. The data set is classed as functional, cell-based. Conditions: Homo sapiens.
Description: Antiproliferative activity against human NCI-H358 cells assessed as reduction in cell viability
Data set [4] deals with Tyrosine-protein kinase BTK (Homo sapiens, UniProt Q06187).
Description: Inhibition of BTK (unknown origin)
The target in data set [5] is Tyrosine-protein kinase Blk (Homo sapiens, UniProt P51451).
Description: Inhibition of BLK (unknown origin)
Data set [6] deals with NCI-H358. In words: cells. The data set is classed as functional, cell-based. The following applies: Homo sapiens, NCI-H358, 72 h.
Description: Antiproliferative activity against human NCI-H358 cells assessed as reduction in cell growth incubated for 72 hrs by cell-titer glo assay
A short description of another data set: clinical. Conditions: human, in vivo, po.
Data set [7] has as its target Epidermal growth factor receptor (Homo sapiens, UniProt P00533).

Among the data in ChEMBL document CHEMBL6092145, “Recent advances in the design of small molecular drugs with acrylamides covalent warheads” (Bioorg Med Chem, 2024) are IC50 and bioavailability values, retold here.

A value given as a limit tells only on which side of the number the result lay.

Chain of Tyrosine-protein kinase Blk (P51451 whole entry): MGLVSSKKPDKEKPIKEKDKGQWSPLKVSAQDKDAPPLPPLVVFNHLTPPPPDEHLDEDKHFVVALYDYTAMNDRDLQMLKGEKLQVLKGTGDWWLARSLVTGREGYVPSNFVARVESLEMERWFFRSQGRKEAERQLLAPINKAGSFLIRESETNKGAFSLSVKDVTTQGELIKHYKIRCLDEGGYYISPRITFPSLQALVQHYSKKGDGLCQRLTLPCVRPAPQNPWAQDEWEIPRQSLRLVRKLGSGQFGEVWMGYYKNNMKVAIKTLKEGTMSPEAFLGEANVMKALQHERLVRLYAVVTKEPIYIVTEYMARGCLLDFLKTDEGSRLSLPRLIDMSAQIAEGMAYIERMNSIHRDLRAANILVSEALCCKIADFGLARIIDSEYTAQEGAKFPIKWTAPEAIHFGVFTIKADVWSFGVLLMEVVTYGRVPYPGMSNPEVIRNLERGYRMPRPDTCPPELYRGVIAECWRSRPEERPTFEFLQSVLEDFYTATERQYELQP
Chain of Tyrosine-protein kinase Lck (P06239 whole entry): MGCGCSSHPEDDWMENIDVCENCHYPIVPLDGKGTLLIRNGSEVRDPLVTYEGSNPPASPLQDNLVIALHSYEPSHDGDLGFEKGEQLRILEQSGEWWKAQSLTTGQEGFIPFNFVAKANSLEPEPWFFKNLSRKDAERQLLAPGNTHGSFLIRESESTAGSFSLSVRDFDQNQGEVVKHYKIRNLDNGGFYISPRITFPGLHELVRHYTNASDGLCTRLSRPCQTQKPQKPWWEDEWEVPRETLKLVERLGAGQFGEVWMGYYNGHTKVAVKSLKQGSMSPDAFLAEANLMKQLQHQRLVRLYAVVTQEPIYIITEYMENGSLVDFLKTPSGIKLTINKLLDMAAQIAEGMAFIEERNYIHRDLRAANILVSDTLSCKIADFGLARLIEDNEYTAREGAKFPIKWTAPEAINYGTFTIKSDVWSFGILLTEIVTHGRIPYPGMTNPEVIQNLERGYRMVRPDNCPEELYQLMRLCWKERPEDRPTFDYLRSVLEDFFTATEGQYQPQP
Chain of Tyrosine-protein kinase BTK (Q06187 whole entry): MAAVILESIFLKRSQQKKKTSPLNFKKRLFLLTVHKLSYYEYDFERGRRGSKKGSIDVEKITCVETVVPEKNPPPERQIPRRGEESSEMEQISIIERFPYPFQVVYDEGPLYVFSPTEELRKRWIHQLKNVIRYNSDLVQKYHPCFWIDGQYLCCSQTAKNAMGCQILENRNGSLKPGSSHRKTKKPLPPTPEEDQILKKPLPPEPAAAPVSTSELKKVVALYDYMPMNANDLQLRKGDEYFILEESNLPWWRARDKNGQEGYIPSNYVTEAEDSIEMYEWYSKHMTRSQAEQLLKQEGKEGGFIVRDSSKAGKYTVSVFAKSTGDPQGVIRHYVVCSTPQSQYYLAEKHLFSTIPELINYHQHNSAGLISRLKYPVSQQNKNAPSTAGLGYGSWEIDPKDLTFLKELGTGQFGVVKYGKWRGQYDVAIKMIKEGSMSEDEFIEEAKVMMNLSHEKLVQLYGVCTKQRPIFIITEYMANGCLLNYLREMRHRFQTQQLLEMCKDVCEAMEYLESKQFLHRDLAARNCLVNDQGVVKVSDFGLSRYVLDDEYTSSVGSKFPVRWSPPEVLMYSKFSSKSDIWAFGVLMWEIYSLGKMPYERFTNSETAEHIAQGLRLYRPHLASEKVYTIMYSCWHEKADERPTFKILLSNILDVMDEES
Chain of Epidermal growth factor receptor (P00533 whole entry): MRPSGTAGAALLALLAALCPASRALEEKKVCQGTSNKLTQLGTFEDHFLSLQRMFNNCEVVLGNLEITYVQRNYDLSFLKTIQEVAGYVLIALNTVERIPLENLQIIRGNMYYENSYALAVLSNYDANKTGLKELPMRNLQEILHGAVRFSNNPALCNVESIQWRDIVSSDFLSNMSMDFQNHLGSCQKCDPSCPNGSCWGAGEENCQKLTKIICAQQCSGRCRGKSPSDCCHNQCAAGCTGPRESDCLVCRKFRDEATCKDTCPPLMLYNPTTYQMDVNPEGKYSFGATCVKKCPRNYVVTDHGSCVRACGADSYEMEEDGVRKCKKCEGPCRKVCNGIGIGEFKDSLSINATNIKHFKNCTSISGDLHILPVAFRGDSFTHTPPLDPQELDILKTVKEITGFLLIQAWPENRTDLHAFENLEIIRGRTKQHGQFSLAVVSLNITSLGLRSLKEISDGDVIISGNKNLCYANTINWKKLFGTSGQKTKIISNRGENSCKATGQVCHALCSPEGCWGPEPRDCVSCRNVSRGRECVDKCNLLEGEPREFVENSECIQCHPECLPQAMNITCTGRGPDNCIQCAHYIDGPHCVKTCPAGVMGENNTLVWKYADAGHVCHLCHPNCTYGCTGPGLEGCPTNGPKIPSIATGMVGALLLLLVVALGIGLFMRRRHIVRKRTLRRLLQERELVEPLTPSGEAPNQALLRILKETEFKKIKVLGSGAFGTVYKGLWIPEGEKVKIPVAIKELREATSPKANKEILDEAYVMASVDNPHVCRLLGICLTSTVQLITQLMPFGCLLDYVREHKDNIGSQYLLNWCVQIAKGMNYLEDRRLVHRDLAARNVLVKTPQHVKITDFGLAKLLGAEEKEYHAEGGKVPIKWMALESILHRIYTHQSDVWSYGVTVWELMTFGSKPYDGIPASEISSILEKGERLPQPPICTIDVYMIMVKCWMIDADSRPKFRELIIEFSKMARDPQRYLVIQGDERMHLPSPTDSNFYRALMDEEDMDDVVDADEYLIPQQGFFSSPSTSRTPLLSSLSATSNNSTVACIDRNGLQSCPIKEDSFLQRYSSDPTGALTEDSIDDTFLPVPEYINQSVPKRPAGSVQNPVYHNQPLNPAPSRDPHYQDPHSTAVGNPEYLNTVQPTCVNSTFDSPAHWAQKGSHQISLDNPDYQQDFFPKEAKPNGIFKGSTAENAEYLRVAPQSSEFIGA
Chain of Tyrosine-protein kinase Lyn (P07948 whole entry): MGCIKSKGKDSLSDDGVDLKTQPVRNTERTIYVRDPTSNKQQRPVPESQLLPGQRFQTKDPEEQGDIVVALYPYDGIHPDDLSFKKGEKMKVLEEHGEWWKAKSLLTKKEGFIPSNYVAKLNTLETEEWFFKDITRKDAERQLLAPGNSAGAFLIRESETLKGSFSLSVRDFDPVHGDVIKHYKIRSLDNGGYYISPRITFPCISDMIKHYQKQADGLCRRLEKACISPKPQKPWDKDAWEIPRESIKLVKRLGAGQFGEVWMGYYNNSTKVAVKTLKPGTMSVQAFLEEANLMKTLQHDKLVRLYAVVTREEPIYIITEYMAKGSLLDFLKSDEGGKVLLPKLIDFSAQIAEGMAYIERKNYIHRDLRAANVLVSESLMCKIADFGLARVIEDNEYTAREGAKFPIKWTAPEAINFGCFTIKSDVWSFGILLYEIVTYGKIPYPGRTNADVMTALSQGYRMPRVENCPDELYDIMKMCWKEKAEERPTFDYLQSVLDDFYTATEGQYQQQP
Description for clinical: Oral bioavailability in human

With `Nc1ncnc2c1c(-c1ccc(Oc3ccccc3)cc1)nn2C1CCCC1`, the half-inhibitory concentration (IC50) in data set [1] was 4.6 nM; in data set [2], 2.5 nM.

As for `C=CC(=O)N1CCN(c2ncnc3c(F)c(-c4c(O)cccc4F)c(Cl)cc23)CC1`, the half-inhibitory concentration (IC50) with NCI-H358 [3] was 939 nM.

Regarding `C=CC(=O)NC1Cn2c(c(-c3ccc(Oc4ccccc4)cc3)c3c(N)ncnc32)C1=C` (centres undefined), the results for the IC50 in data set [4] and in data set [5] were 0.4 nM and 0.5 nM, respectively.

Consider `C=CC(=O)N1CCN(C(=O)CNc2cc(Cl)c(Cl)cc2OC)CC1`, for which the 50% inhibitory concentration (IC50) in data set [5] was greater than 1000 nM.

In turn, `C=CC(=O)N1CC(N2CCN(C(=O)CNc3cc(C4(C)CC4)c(Cl)cc3O)CC2)C1` registered a concentration for half-maximal inhibition (IC50) in the data set with NCI-H358 [3] of 250 nM.

The molecule `C=CC(=O)N1CCN(c2nc(OC[C@@H]3CCCN3C)nc3c2CCN(c2cccc4cccc(Cl)c24)C3)C[C@@H]1CC#N` gave an IC50 in the data set with NCI-H358 [6] of 1 nM. In “clinical”, this molecule returned a bioavailability of 16.9%.

In the data set on NCI-H358 [6], `C=C(F)C(=O)N1CCN(c2nc(OC[C@@H]3CCCN3CCCOCCC(=O)N[C@H](C(=O)N3C[C@H](O)C[C@H]3C(=O)NCc3ccc(-c4scnc4C)cc3)C(C)(C)C)nc3c2CCN(c2cccc4cccc(Cl)c24)C3)C[C@@H]1CC#N` had an IC50 of 520 nM.

Turning to `CN(C)CCSSCCNC(=O)C1CCN(C(=O)CSc2ccc(Cl)cc2)CC1`, in data set [5], the IC50 was greater than 10000 nM.

`CN(C)CCSSCCC(=O)Nc1cc(-c2cccs2)[nH]n1`: the half-inhibitory concentration (IC50) in data set [5] is greater than 10000 nM.

`CN(C)CCSSCCC(=O)NC1CCN(C(=O)COc2ccc(Cl)cc2Cl)CC1` had an IC50 in data set [7] greater than 10000 nM.

Regarding `C=CC(=O)N1CCN(c2nc(=O)n(-c3c(C)ccnc3C(C)C)c3nc(-c4c(O)cccc4F)c(F)cc23)[C@@H](C)C1` [SOTORASIB], in the data set with NCI-H358 [3], the IC50 is 68 nM.

A word on the IC50: it is the concentration needed to halve the response being measured. A low value points to greater potency in that assay. What is called bioavailability is the share of a dose that reaches the circulation, judged against a reference dose that is usually intravenous. Read a high bioavailability as much systemic uptake.
